A word on the IC50: it is the concentration needed to halve the response being measured.

Molecules are shown by their SMILES. Activity calls are given as the source filed them. No cut-off for these calls is given here.

Data set [1] deals with Plasmodium falciparum. The data set is described as follows: Antiplasmodial activity against chloroquine-resistant Plasmodium falciparum W2 infected in human erythrocytes assessed as reduction in parasitaemia up to 10 uM after 48 hrs by FACS. The format is functional, organism-based. A general note: Flow cytometry measures light scatter and fluorescence of single cells or particles in a stream.

Data set [2] relates to Plasmodium falciparum. The data set is described as follows: Antiplasmodial activity against chloroquine-resistant Plasmodium falciparum W2 infected in human erythrocytes assessed as reduction in parasitaemia after 48 hrs by FACS. As to conditions: W2, 48 h. The format is functional, organism-based.
Data set [3] relates to Vero. Description: Cytotoxicity against african green monkey Vero cells at => 5000 ng/mL. The format is cell-based. As to conditions: chlorocebus sabaeus.
The test system of data set [4] is Vero. Description: Cytotoxicity against african green monkey Vero cells at 1200 ng/mL. The format is cell-based. As to conditions: chlorocebus sabaeus.

As to `COc1ccc(CO[C@H]2C[C@H]3[C@@H]([C@H]2C)[C@@H](O)[C@@]2([C@@H](C)COC(C)=O)C=C[C@]3(C)OO2)cc1`, the inhibition entry in the data set with Plasmodium falciparum [1] is “inactive”. Take `C[C@@H]1[C@H]2[C@H]3OC(=O)[C@H](C)[C@@]34C=C[C@](C)(OO4)[C@H]2C[C@@H]1O`: in the data set on Plasmodium falciparum [2], the IC50 stood at 1050 nM. In the case of `CCO[C@H]1O[C@@H]2[C@@H]3[C@@H](C)[C@@H](OCc4ccc(OC)cc4)C[C@@H]3[C@]3(C)CC[C@]2(OO3)[C@H]1C`, the IC50 in the data set with Plasmodium falciparum [2] came to 24 nM. In addition, the Activity result in the data set with Vero [3] is listed as “Non-toxic”.

For `COc1ccc(CO[C@H]2C[C@H]3[C@@H]([C@H]2C)[C@H]2OC[C@H](C)[C@@]24C=C[C@]3(C)OO4)cc1`, the IC50 with Plasmodium falciparum [2] is 230 nM. As for `CCO[C@@H]1O[C@@H]2[C@@H]3[C@@H](C)[C@@H](OCc4ccc(OC)cc4)C[C@@H]3[C@]3(C)C=C[C@]2(OO3)[C@H]1C`, the IC50 with Plasmodium falciparum [2] is 620 nM. The Activity entry with Vero [3] is listed as “Non-toxic”. With `CC(=O)OC[C@H](C)[C@]12C=C[C@](C)(OO1)[C@H]1C[C@H](O)[C@H](C)[C@H]1C2=O`, the inhibition result in the data set on Plasmodium falciparum [1] was “inactive”. Take `C/C=C(/C)C(=O)O[C@H]1C(C)=C2[C@H]([C@@H]1OC(=O)CCCCCCC)[C@@](C)(OC(C)=O)C[C@H](OC(=O)CCC)[C@@]1(O)[C@H]2OC(=O)[C@@]1(C)O` [THAPSIGARGIN]: in the data set with Vero [4], the Activity result is “Toxic”. On to `COc1ccc(CO[C@H]2C[C@H]3[C@@H]([C@H]2C)[C@H]2OC(=O)[C@H](C)[C@@]24C=C[C@]3(C)OO4)cc1`, for which, in the data set on Plasmodium falciparum [2], the IC50 came to 290 nM. Also, the Activity result with Vero [3] is listed as “Non-toxic”. With `COc1ccc(CO[C@H]2C[C@H]3[C@@H]([C@H]2C)[C@H]2OC(O)[C@H](C)[C@@]24C=C[C@]3(C)OO4)cc1` (some centres not stated), the concentration for half-maximal inhibition (IC50) in the data set on Plasmodium falciparum [2] was 1040 nM. `C[C@@H]1[C@H]2[C@@H](O)[C@@]3([C@@H](C)CO)C=C[C@](C)(OO3)[C@H]2C[C@@H]1O`: the inhibition result in the data set on Plasmodium falciparum [1] is “inactive”.

Consider `CC(=O)OC[C@H](C)[C@]12C=C[C@](C)(OO1)[C@H]1CC(=O)[C@H](C)[C@H]1C2=O`, for which, in the data set with Plasmodium falciparum [2], the IC50 amounted to 4600 nM. For `CCO[C@@H]1O[C@@H]2[C@@H]3[C@@H](C)[C@@H](OCc4ccc(OC)cc4)C[C@@H]3[C@]3(C)CC[C@]2(OO3)[C@H]1C`, the half-inhibitory concentration (IC50) in the data set on Plasmodium falciparum [2] came to 3400 nM. In the case of `COc1ccc(CO[C@H]2C[C@H]3[C@@H]([C@H]2C)[C@H]2OC(O)[C@H](C)[C@@]24CC[C@]3(C)OO4)cc1` (some centres not stated), in the data set on Plasmodium falciparum [1], the inhibition entry was “inactive”. On the same count and under the same terms, as for `CC(=O)OC[C@H](C)[C@]12C=C[C@](C)(OO1)[C@H]1C[C@H](O)[C@H](C)[C@H]1[C@H]2O`, the entry is “inactive”.

As for `C[C@@H]1[C@H]2[C@H]3OC(=O)[C@H](C)[C@@]34CC[C@](C)(OO4)[C@H]2C[C@@H]1O`, in the data set with Plasmodium falciparum [2], the IC50 is 610 nM. `CCO[C@H]1O[C@@H]2[C@@H]3[C@@H](C)[C@@H](OCc4ccc(OC)cc4)C[C@@H]3[C@]3(C)C=C[C@]2(OO3)[C@H]1C`: the IC50 with Plasmodium falciparum [2] was 13 nM. Moreover, in the data set with Vero [3], the Activity entry was “Non-toxic”. In the same order, the values of `COc1ccc(CO[C@H]2C[C@H]3[C@@H]([C@H]2C)[C@H]2OC(=O)[C@H](C)[C@@]24CC[C@]3(C)OO4)cc1` are 370 nM and “Non-toxic”. Take `C[C@H]1C(=O)C[C@H]2[C@@H]1[C@H]1OC(=O)[C@H](C)[C@@]13CC[C@]2(C)OO3`: in the data set on Plasmodium falciparum [2], the IC50 turned out to be 270 nM. Still for that read-out and setting: with `C[C@@H]1[C@H]2[C@H]3OC[C@H](C)[C@@]34C=C[C@](C)(OO4)[C@H]2C[C@@H]1O` the figure was 570 nM; with `COc1ccc(CO[C@H]2C[C@H]3[C@@H]([C@H]2C)[C@H]2OC[C@H](C)[C@@]24CC[C@]3(C)OO4)cc1`, 7500 nM; with `C[C@@H]1CC[C@H]2[C@@H](C)C(=O)O[C@@H]3O[C@@]4(C)CC[C@@H]1[C@]32OO4` [ARTEMISININ], 5 nM. The same measure, in the same setting: as for `COc1ccc(CO[C@H]2C[C@H]3[C@@H]([C@H]2C)[C@@H](O)[C@@]2([C@@H](C)CO)C=C[C@]3(C)OO2)cc1`, the figure is 9110 nM.

Values taken from ChEMBL document CHEMBL1275366, “Design, synthesis, and development of novel guaianolide-endoperoxides as potential antimalarial agents” (J Med Chem, 2010).
